The test system of data set [1] is LNCaP cells. Nature of the data set: Confocal microscopy of fluorescein polyamide uptake in LNCaP cells. The class given is cell-based. To be noted: for nuclear localization in LNCaP cells: 2 μM, 24 hr. The procedure: Cells were plated in 35 mm optical dishes (MatTek) and dosed with polyamide 86 at 1 μM for 24 hours with or without 1 μM MG132. Cells were then washed with PBS and imaged on a confocal microscope (Exciter, Zeiss) using a 63× oil immersion lens. Confocal imaging was performed following established protocols (33).
To determine the biological activity of 78 in LNCaP cells we first looked for evidence nuclear localization using fluorescein analog 90. The fluorescein analog of 77, compound 88, was used as benchmark.

The test system of data set [2] is FKBP5 mRNA expression in LNCaP cells. The data set can be described thus: DHT-induced FKBP5 mRNA in LNCaP cells. The class given is cell-based.
The subject of data set [3] is PSA mRNA expression in LNCaP cells. Nature of the data set: DHT-induced PSA mRNA in LNCaP cells, quantitative real-time RT-PCR. It counts as cell-based. To be noted: for inhibition of DHT-induced PSA expression: up to, at 10 μM, 1 nM DHT. On the technique in general: Real-time PCR tracks product formation cycle by cycle.
Method: LNCaP cells (ATCC) were plated in 24-well plates at a density of 40-50×10^3 cells per well (80-100×10^3 cells per ml) in RPMI medium 1640 (ATCC) supplemented with 10% FBS (Irvine Scientific, Santa Ana, Calif.). After 72 h, the medium was replaced with RPMI medium 1640 containing 10% charcoal stripped FBS with or without polyamides at the designated concentrations. Cells were grown for an additional 48 h and then treated with 1 nM DHT for 16 h. When appropriate, bicalutamide was added 2 h before DHT stimulation. Isolation of RNA and cDNA synthesis was performed as described (21). Quantitative real-time RT-PCR was performed with SYBR Green PCR Master Mix (Applied Biosystems, Foster City, Calif.) on an ABI 7300 instrument. PSA mRNA was measured relative to β-glucuronidase as an endogenous control.
For data set [4], the system named is PSA mRNA expression in LNAR cells. Nature of the data set: PSA mRNA expression in LNAR cells (hormone refractory, over-express AR). The class given is cell-based.
From the text: The cell line LNAR was used, which has been engineered to over-express AR (14). LNAR cells over-express AR and form hormone refractory tumors when xenografted in mice (14).
The test system of data set [5] is transcripts in DHT-stimulated LNCaP cells. Nature of the data set: Gene expression with Affymetrix Human Genome U133 Plus 2.0 arrays, DHT-stimulated LNCaP cells. It counts as cell-based. As to the method: LNCaP cells were plated in 12-well plates at a density of 80-100×10^3 cells per well. Media, polyamide treatments, and time courses were the same as described above. Bicalutamide was added 2 h before DHT stimulation. RNA was isolated as described in ref. 21. From this point, experiments were carried out at the Millard and Muriel Jacobs Gene Expression Facility at the California Institute of Technology. Labeled mRNA was hybridized to Affymetrix high-density Human Genome U133 Plus 2.0 arrays according to established protocols. Gene expression was analyzed by using Resolver (Rosetta Biosoftware, Seattle, Wash.). Data were uploaded to the Gene Expression Omnibus repository (accession no. GSE7708).
Global effects of polyamides 1 and 2 and bicalutamide on gene expression in DHT-stimulated LNCaP cells were monitored with Affymetrix (Santa Clara, Calif.) high-density Human Genome U133 Plus 2.0 arrays, which interrogate >50,000 transcripts.

Data set [6] can be described thus: Escalating single dose subcutaneous injections, male C57BL/6J mice (weight, histopathology, serum). To be noted: for weight loss after single SC dose: 1, 3, 10 mg/kg, 9 days.
Method: Representative mice (n=2 per dosing group unless otherwise noted) were subjected to histopathology analysis by a veterinary pathologist. Blood from all mice was sampled and sent for analysis of serum markers of target organs. […] These mice were euthanized when significant duress was apparent.
All animal experiments were conducted under an approved protocol at the California Institute of Technology. Animals were allowed to adjust for 3 days after arrival before treatment. […] Animals were monitored daily for weight loss over 9 days and sacrificed. […] Weight was recorded on days of injection and at the experiment endpoint.
Sacrificed animals from weight loss experiments were fixed in 10% formalin and sent for histopathology analysis by IDEXX-RADIL. Histopathologic analysis was performed on the cecum, duodenum, heart, ileum, kidney, liver, lung, pancreas, spleen, and stomach. Tissue analysis was performed as a blind study to the identity of the animals.
Serum from treated animals were collected by retroorbital bleeding. Blood samples were centrifuged at 6,000 rpm for 5 min to collect the serum. Serum ALT, AST, total bilirubin, BUN, and creatinine levels were sent for analysis by IDEXX-RADIL. Serum analysis was performed as a blind study to the identity of the animals.
Data set [7] is described as follows: Serum circulation after subcutaneous injection in C57BL/6 mice. The class given is in vivo. To be noted: 10 mg/kg, male C57BL/6J. As to the method:
To investigate if polyamide 77 could be detected in peripheral blood after SC injections, 120 nmol of 77 (in 5% DMSO/PBS) was injected into the right flank of four C57BL/6 mice. Blood was collected from anesthetized mice via retroorbital collection at 5 minutes, 4 h, and 12 h after injection, then processed by methods previously described and analyzed by HPLC (35). For measurement of serum PSA (KLK3) and uric acid, blood was collected from anesthetized mice via retroorbital collection at experimental endpoint and serum was separated from blood by centrifugation. Serum PSA (KLK3) was measured by ELISA (R&D systems) according to manufacturer's instructions. Uric acid was measured as described (36).
We synthesized four structurally related polyamides (FIG. 28) that have an identical Py-Im sequence ImPyPyPy-γ-ImPyPyPy-NHMe-IPA.

Data set [8] is described as follows: Liver microsomal stability, mouse. The note with it: 1 μM, Mouse, 1 hr at 37° C., 1 mg/ml microsomes.
Data set [9] can be described thus: Multiple-dose subcutaneous injections, male C57BL/6J mice. It counts as in vivo. To be noted: 1 mg/kg SC every 3 days. As to the method:
In addition to single dose injections, the effects of repeated dosing of polyamides 77-80 in mice were examined. In this experiment, 8 week-old male C57BL/6J mice (n=3 per dosing group) were treated with 1 mg/kg of polyamides 77-80 by subcutaneous injection every 3 days, for a cycle of three injections and then sacrificed two days after the final injection (FIG. 31A). As in the single dosing experiments, two mice per group were subjected to histopathology analysis and all blood samples were sent for analysis. […] These mice were promptly euthanized.
Serum from treated animals were collected by retroorbital bleeding. […] All samples were sent for analysis at IDEXX-RADIL.

Data set [10] in a line: Liver microsomal stability, human. The note with it: 1 μM, Human, 1 hr at 37° C., 1 mg/ml microsomes. Background: Liver microsomes are a subcellular fraction often used to study metabolism.
Method: Briefly, each polyamide was incubated with 1 mg/ml human or mouse microsomes at 37° C. The reaction was incubated in 100 mM KH2PO4, 2 mM NADPH, 3 mM MgCl2 at pH 7.4. Samples were also incubated in the absence of NADPH to detect NADPH-free degradation. After 60 min the samples were mixed with an equal volume of ice cold methanol stop solution. The mixture was allowed to sit on ice for at least 10 min and mixed with an equal volume of water. The samples were then centrifuged to remove the precipitates and the samples were analyzed by LC/MS/MS. Data represents % remaining by comparing with time zero concentration. The experiments were performed in duplicate.
Data set [11] in a line: Liver uptake of fluorescein-polyamide conjugates in mice. The note with it: 50 nmol (~3 mg/kg), 24 hours. The class given is in vivo. The procedure: Male C57BL/6J mice (n=2 per group) were injected with 50 nmol (˜3 mg/kg) of 88-91 and then sacrificed 24 hours later. Tissue was excised and processed as previously described (20). The tissues were excised and fixed in 10% Neutral Buffered Formalin for 48 hours. They were subsequently cryoprotected in 15% and 30% aqueous sucrose solution (w/v) for 24 hours each, embedded in a medium for frozen sections (Sakura) and frozen on dry ice. Fluorescence intensity in liver tissue was assessed by laser confocal microscopy in 10 μm thick sections on slides mounted with a ProLong antifade reagent (Invitrogen).

[12] abbreviates: 10 μM, + DHT, relative to DHT-induced controls, p ≦ 0.01.
[13] abbreviates: relative to DHT-induced controls, + DHT.

Read-outs that look alike come from different tables or passages of the source.

Turning to `CN(CCCNC(=O)c1cc(NC(=O)c2cc(NC(=O)c3cc(NC(=O)c4nc(NC(=O)C[C@H](CNC(=O)c5cc(NC(=O)c6cc(NC(=O)c7cc(NC(=O)c8nccn8C)cn7C)cn6C)cn5C)NC(=O)OCc5ccccc5)cn4C)cn3C)cn2C)cn1C)CCCNC(=S)Nc1ccc(-c2c3ccc(=O)cc-3oc3cc(O)ccc23)c(C(=O)O)c1` [Polyamide 86], the “cellular uptake with MG132” value in data set [1] (1 μM, 24 hours, 1 μM MG132) is listed as “did not affect the cellular uptake”.
One may read the IC50 as the concentration at which inhibition is half-maximal. With `CC(O)(CS(=O)(=O)c1ccc(F)cc1)C(=O)Nc1ccc(C#N)c(C(F)(F)F)c1` (stereo not shown) [bicalutamide, reference compound], in data set [2], the “inhibition of DHT-induced expression of FKBP5” value is approximately 95%. Moreover, in data set [3] (Homo sapiens, LNCaP + DHT, read-out: IC50 for inhibition of PSA mRNA expression), the 50% inhibitory concentration (IC50) was 0.9 µM. Moreover, the “inhibition of DHT-induced PSA expression” value in data set [3] is on record as “approximately 70%”. Further, the “inhibition of DHT-induced PSA expression” value in data set [3] (listed as Bicalutamide) was “≈ 70%”. For the same compound, the IC50 in data set [4] (LNAR + DHT, read-out: IC50 for inhibition of PSA mRNA expression) is more than 1000 µM. In data set [4] (LNAR − DHT, bicalutamide induces PSA mRNA in LNAR cells, read-out: IC50 for inhibition of PSA mRNA expression (value in parentheses)), the concentration for half-maximal inhibition (IC50) stood at 3.5 µM. Besides, in data set [5] (setting [12]), the “Number of transcripts down-regulated (fold change ≦ −2.0)” value is recorded as 602, the “Number of transcripts down-regulated (fold change ≦ −4.0)” value was found to be 133, the “Number of transcripts up-regulated (fold change ≧ 2.0)” value was found to be 611 and the “Number of transcripts up-regulated (fold change ≧ 4.0)” value amounted to 96. Also, the “number of transcripts affected by at least 2-fold” value in data set [5] (10 μM, P≦0.01, vs DHT-induced controls) is on record as 1,213. Further, in [5] (P≦0.01), the “number of the 88 DHT-repressed transcripts derepressed at least 2-fold” value turned out to be 87 and the “number of the 199 DHT-induced transcripts inhibited at least 2-fold” value is listed as 186. For the same compound, in [5] (setting [13]), the “Fold-change of FKBP5” value is −36.4, the “Fold-change of KLK2” value is listed as −14.7, the “Fold-change of KLK3 (PSA)” value was −3.2 and the “Fold-change of TMPRSS2” value is −4.1.
In the case of `Cn1cc2cc1C(=O)NCCCC(=O)Nc1cn(C)c(n1)C(=O)Nc1cc(n(C)c1)C(=O)Nc1cc(n(C)c1)C(=O)Nc1cc(n(C)c1)C(=O)NCC[C@@H](N)C(=O)Nc1cn(C)c(n1)C(=O)Nc1cc(n(C)c1)C(=O)Nc1cc(n(C)c1)C(=O)N2` [Polyamide 87], in data set [6], the “weight loss after single SC dose” value is listed as “did not cause significant weight loss”. Moreover, the “overall toxicity / organ damage” value in [6] (single SC 1, 3, 10 mg/kg) was “moderate damage to both the liver and kidney at 3 and 10 mg/kg”. For the same compound, the “serum liver markers AST, ALT, total bilirubin” value in data set [6] (single SC dose) was “caused levels of ALT and AST to increase in a dose dependent manner”. The “bioavailability in serum after subcutaneous injection” value in data set [7] was “bioavailable after subcutaneous injection at 10 mg/kg”.
For `CN(CCCNC(=O)c1cccc(C(=O)O)c1)CCCNC(=O)c1cc(NC(=O)c2cc(NC(=O)c3cc(NC(=O)c4nc(NC(=O)C[C@@H](N)CNC(=O)c5cc(NC(=O)c6cc(NC(=O)c7cc(NC(=O)c8nccn8C)cn7C)cn6C)cn5C)cn4C)cn3C)cn2C)cn1C` [Polyamide 79, ImPyPyPy-3-(R)H^2Nγ-ImPyPyPy-NHMe-IPA], in [8], the “Mean remaining parent NADPH-free” value was determined as 100% and the “Mean remaining parent with NADPH” value is recorded as 92.4%. Besides, the “weight loss after single SC dose” value in data set [6] is “significant weight loss only at 10 mg/kg”. Further, in data set [6] (single SC 3 mg/kg), the kidney histopathology entry is recorded as “Moderate atypical tubular regeneration”; the liver histopathology result is “Mild hepatocellular necrosis and apoptosis”. Moreover, in [6] (single SC 10 mg/kg), the liver histopathology entry was “diffuse hepatocellular necrosis and apoptosis”; the spleen histopathology entry is reported as “Mild lymphoid apoptosis in the white pulp of the spleen”. For the same compound, in [6] (single SC dose), the “serum kidney markers creatinine and BUN” value is reported as “elevated BUN at 10 mg/kg”; the “serum liver markers AST, ALT, total bilirubin” value is “severe elevation of AST, ALT, and total bilirubin at 10 mg/kg and to a lesser extent at 3 mg/kg”. Further, in data set [9], the “liver and kidney histopathology” value is “mild multifocal hepatocellular necrosis and apoptosis in the liver and mild variable tubular attenuation, karyomegaly and epithelial necrosis and apoptosis in the kidney”; the “liver and kidney serum markers” value was “elevated AST and ALT”. Moreover, in [9] (three injections), the “weight and physical morbidity” value is given as “no loss in weight or physical morbidities”. Further, in data set [10], the “Mean remaining parent NADPH-free” value amounted to 100% and the “Mean remaining parent with NADPH” value stood at 91.9%.
For the compound `CN(CCCNC(=O)c1cc(NC(=O)c2cc(NC(=O)c3cc(NC(=O)c4nc(NC(=O)[C@H](N)CCNC(=O)c5cc(NC(=O)c6cc(NC(=O)c7cc(NC(=O)c8nccn8C)cn7C)cn6C)cn5C)cn4C)cn3C)cn2C)cn1C)CCCNC(=S)Nc1ccc(-c2c3ccc(=O)cc-3oc3cc(O)ccc23)c(C(=O)O)c1` [Polyamide 88], in data set [1], the “nuclear localization in LNCaP cells” value is recorded as “robust nuclear localization”.
In the case of `CC(=O)N[C@@H](CNC(=O)c1cc(NC(=O)c2cc(NC(=O)c3cc(NC(=O)c4nccn4C)cn3C)cn2C)cn1C)CC(=O)Nc1cn(C)c(C(=O)Nc2cc(C(=O)Nc3cc(C(=O)Nc4cc(C(=O)NCCCN(C)CCCNC(=S)Nc5ccc(-c6c7ccc(=O)cc-7oc7cc(O)ccc67)c(C(=O)O)c5)n(C)c4)n(C)c3)n(C)c2)n1` [Polyamide 91], the “nuclear fluorescence in liver sections” value in data set [11] is reported as “the most intense nuclear fluorescence in liver sections”.
With `CC(=O)N[C@H](CCNC(=O)c1cc(NC(=O)c2cc(NC(=O)c3cc(NC(=O)c4nccn4C)cn3C)cn2C)cn1C)C(=O)Nc1cn(C)c(C(=O)Nc2cc(C(=O)Nc3cc(C(=O)Nc4cc(C(=O)NCCCN(C)CCCNC(=S)Nc5ccc(-c6c7ccc(=O)cc-7oc7cc(O)ccc67)c(C(=O)O)c5)n(C)c4)n(C)c3)n(C)c2)n1` [Polyamide 90], the “nuclear localization in LNCaP cells” value in [1] is recorded as “robust nuclear localization”. In addition, the “nuclear fluorescence in liver sections” value in [11] is on record as “less nuclear fluorescence in liver sections than the other FITC-polyamide conjugates”.

(Values after patent publication US20170260169A1, “INHIBITORS FOR STEROID RESPONSE ELEMENTS AND RNA POLYMERASE II AND RELATED METHODS” (priority 2007, published 2017).)
